In PMC9841525, “Chemical Blockage of the Mitochondrial Rhomboid Protease PARL by Novel Ketoamide Inhibitors Reveals Its Role in PINK1/Parkin-Dependent Mitophagy” (Journal of Medicinal Chemistry, 2022):
Entries after “also recorded” stand apart in the source; their conditions may differ. *1 amine or outer side, *2 acyl side, *3 side chain or, on linkers, in order; H or OH if unused. Where a SMILES comes first, the peptide text is derived from it. [ ]: non-standard residue; d: D form. The star is where a group is joined. NH(4-phenylbutyl) = c1ccc(CCCCN*)cc1; X1 = C[C@H](N[*:1])C(=O)C(=O)[*:2]

Experiments:
HEK293T cells = assay: JC-1 mitochondrial membrane potential assay; format: cell-based, human; conditions: 5 µM compound 5 or CCCP, at least three hours, compared to DMSO
Procedure: Staining of cells for the determination of mitochondrial membrane potential was carried out with the JC-1 mitochondrial staining kit (Sigma-Aldrich) according to the kit’s instructions; stained cells were immediately taken to live cell imaging.
For fixation, cells were incubated for 15 min with 4% formaldehyde (16% formaldehyde diluted in PBS, Thermo Scientific) and washed in PBS. The cover glasses were mounted with Fluoromount-G (Southern Biotech) on microscope slides. All microscopy was performed on an LSM 780 system (Carl Zeiss) with a Plan-APOCHROMAT 63× 1.4NA oil objective (Carl Zeiss) and pinhole settings of 1 AU with the Zeiss ZEN 2010 software. Image processing and analysis was performed using ImageJ (http://rsb.info.nih.gov/ij/). […] Parkin recruitment events to the mitochondria were counted by hand throughout each z-stack and cell. […] JC-1 images were handled as summed intensity z-stack projections, as well as subjected to flatfield correction and subtraction of background before measuring the fluorescence levels normalized to the number of cell nuclei. The fluorescence intensity ratio between the red and green signal was calculated and compared to DMSO as a ratio of 1. Data were evaluated using Excel and GraphPad Prism 6.

Parkin = Parkin recruitment to mitochondria, subcellular fractionation and immunoblot; format: cell-based, human; conditions: HEK293 T-REx PINK1 cells, HA-Parkin-IRES-GFP; 5 μM compound 5, CCCP 10 μM or Antimycin A 30 μM
Procedure: Inducible stable Flp-In HEK293 T-REx cells expressing PINK1 were described previously.[33] HEK293 T-REx PINK1 and HEK293T cells were grown in DMEM (Gibco) supplemented with 10% (v/v) fetal bovine serum (ThermoFisher), 1% (v/v) GlutaMAX (Gibco), 1% (v/v) sodium pyruvate (Gibco), 125 μg/mL hygromycin (Invitrogen), and 10 μg/mL blasticidin (Gibco) or DMEM supplemented with 10% (v/v) fetal bovine serum, respectively, at 37 °C in 5% (v/v) CO2. For microscopy, cells were seeded on poly-L-lysine (Sigma)-coated slides. Transient plasmid transfections were performed using 25 kDa linear polyethylenimine (Polysciences). Plasmid (100 ng) encoding HA-Parkin-IRES-GFP, mito-mCherry or Parkin-mEGFP, or 500 ng plasmid encoding PGAM5-FLAG were used per 6-well. Total transfected DNA was 2 μg/well. For siRNA transfection, 2 × 10^5 cells were seeded per 6-well and on the next day transfected with 20 nM siRNA-oligonucleotide using lipofectamine RNAiMAX (ThermoFisher). Cells were analyzed 27 h post-transfection or five days post-siRNA-transfection. HEK293 T-REx PINK1 cells were induced with 0.3 μg/mL doxycycline for 24 h before further processing. Hoechst staining (1 μg/mL) was done immediately before adding treatment to the cells. Treatments were administered for the indicated times before processing; CCCP (Sigma) was always used as 10 μM for 3 h and Antimycin A (Sigma) as 30 μM for 3 h.
Unless mentioned otherwise, all steps were performed at 4 °C. For subcellular fractionation to separate cellular content into cytosolic and mitochondrial fractions, cells were washed with PBS, harvested in PBS-EDTA (1 mM EDTA, 0.2 g/L D-glucose), and centrifuged at 500 × g for 5 min. […]
For immunoblot analysis in other cases, cells were either processed as described above or washed with PBS and directly lysed with Tris-glycine SDS-PAGE sample buffer and heated for 15 min at 65 °C. […] For quantification, ImageJ was used (http://rsb.info.nih.gov/ij/). […]

## CC(=O)N[C@@H](C)C(=O)N[C@H](C(=O)N[C@@H](Cc1ccccc1)C(=O)N[C@@H](CC(C)C)C(=O)N[C@@H](C)C(=O)C(=O)NCCCCc1ccccc1)C(C)C [compound 5] (Ac-AVFL[X1]-{NH(4-phenylbutyl)})
HEK293T cells
  Effect on mitochondrial membrane potential (JC-1 aggregate to monomer ratio): does not depolarize; also recorded: does not significantly alter the membrane potential
Parkin
  Parkin recruitment to the mitochondrial fraction: Parkin recruitment to the mitochondrial fraction, albeit in a lower quantity than in the two chemically induced stress conditions
